PubChem BioAssay (NCI)
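Compound exposure: 48 hours, 5 concentrations, 96-well plates. TGI: concentration producing complete growth inhibition.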

Assays:
Experiment in all cases: NCI anticancer screen, dose series, 48 h
[1] = test system: UACC-62 melanoma
[2] = test system: HOP-92 NSCLC
[3] = test system: NCI-H522 lung
[4] = test system: SK-MEL-28 melanoma
[5] = test system: A549 NSCLC
[6] = test system: UO-31 renal
[7] = test system: ACHN renal
[8] = test system: HOP-62 NSCLC
[9] = test system: NCI-H460 lung
[10] = test system: K-562 leukemia
[11] = test system: SNB-19 CNS
[12] = test system: CCRF-CEM leukemia
[13] = test system: BT-549 breast
[14] = test system: KM12 colon
[15] = test system: SK-MEL-2 melanoma
[16] = test system: SF-268 CNS
[17] = test system: U251 CNS
[18] = test system: HT29 colon
[19] = test system: M14 melanoma
[20] = test system: SNB-75 CNS
[21] = test system: OVCAR-8 ovarian
[22] = test system: OVCAR-3 ovarian
[23] = test system: MALME-3M melanoma
[24] = test system: HL-60(TB) leukemia
[25] = test system: DU-145 prostate
[26] = test system: IGROV1 ovarian
[27] = test system: HCT-116 colon
[28] = test system: NCI/ADR-RES ovarian
[29] = test system: RXF 393 renal
[30] = test system: RPMI-8226 leukemia
[31] = test system: COLO 205 colon
[32] = test system: SF-539 CNS
[33] = test system: LOX IMVI melanoma
[34] = test system: HCT-15 colon
[35] = test system: SK-OV-3 ovarian
[36] = test system: UACC-257 melanoma
[37] = test system: MDA-N
[38] = test system: OVCAR-4 ovarian
[39] = test system: PC-3 prostate
[40] = test system: SF-295 CNS
[41] = test system: SW-620 colon
[42] = test system: MOLT-4 leukemia
[43] = test system: NCI-H23 lung
[44] = test system: CAKI-1 renal
[45] = test system: 786-0 renal
[46] = test system: HS 578T breast
[47] = test system: EKVX NSCLC
[48] = test system: OVCAR-5 ovarian
[49] = test system: SN12C renal
[50] = test system: MDA-MB-231 breast
[51] = test system: T-47D breast
[52] = test system: NCI-H226 lung
[53] = test system: MDA-MB-435
[54] = test system: HCC-2998 colon

COc1c(-c2nc3nc(N4CCN(C)CC4)ccc3[nH]2)cc(OC)c2c1nc(CCl)n2C
TGI [1]: 23.1 µM
TGI [2]: 41.9 µM
TGI [3]: 25.5 µM
TGI [4]: 71.7 µM
TGI [5]: 79.6 µM
TGI [6]: 32.8 µM
TGI [7]: 26.9 µM
TGI [8]: 49.1 µM
TGI [9]: 52.8 µM
TGI [10]: > 100 µM
TGI [11]: > 100 µM
TGI [12]: 62.1 µM
TGI [13]: 40.4 µM
TGI [14]: 30.8 µM
TGI [15]: 29.3 µM
TGI [16]: 55.7 µM
TGI [17]: 25.8 µM
TGI [18]: 32.9 µM
TGI [19]: 33.7 µM
TGI [20]: 29.8 µM
TGI [21]: 50.5 µM
TGI [22]: 81.5 µM
TGI [23]: 37.5 µM
TGI [24]: 53.5 µM
TGI [25]: 78.2 µM
TGI [26]: 36.8 µM
TGI [27]: > 100 µM
TGI [28]: > 100 µM
TGI [29]: 33.8 µM
TGI [30]: 43.1 µM
TGI [31]: 31.1 µM
TGI [32]: 20.7 µM
TGI [33]: 24 µM
TGI [34]: 90.6 µM
TGI [35]: 76.6 µM
TGI [36]: 78.3 µM
TGI [37]: > 100 µM
TGI [38]: 44.3 µM
TGI [39]: 28.2 µM
TGI [40]: > 100 µM
TGI [41]: 64.3 µM
TGI [42]: 58.3 µM
TGI [43]: 47 µM
TGI [44]: 33.2 µM
TGI [45]: > 100 µM
TGI [46]: > 100 µM
TGI [47]: 39.2 µM
TGI [48]: 56.1 µM
TGI [49]: > 100 µM
TGI [50]: 46.1 µM
TGI [51]: 38.9 µM
TGI [52]: 66.1 µM
TGI [53]: 38.2 µM
TGI [54]: 31.2 µM
